Tests used:
[1] = tested on: peritoneal macrophages; assay: Transcription of M2 anti-inflammatory genes in primarily cultured intraperitoneal macrophages, real-time PCR; assay type: cell-based; conditions: mouse intraperitoneal macrophages, 20 ng/mL IL-4, 20 μM, 24 hours
Protocol: Peritoneal macrophages of 7 to 8-week-old C57BL/6 male mice were isolated, seeded in a 24-well dish at a density of 1×10^6 cells/well, and then cultured for 4 hours in an RPMI1640 medium supplemented with 10% fetal bovine serum (FBS). A peritoneal macrophage culture broth was treated with each of 20 ng/mL of IL-4 and 20 μM JC1-40 or JC1-42, as indicated herein, for 24 hours. Thereafter, mRNA expression levels of the M2 anti-inflammatory markers, such as IL-10, Arg1, Retnla, and CD206, […], were measured using a real-time PCR (i.e., real-time reverse transcriptase-polymerase chain reaction; quantitative polymerase chain reaction) assay. In this case, the peritoneal macrophages were kept at 37° C. in a thermo-hygrostat chamber in which 5% CO2 and 95% air were maintained.

[2] = tested on: peritoneal macrophages; assay: Transcription of inflammatory genes in primarily cultured intraperitoneal macrophages, real-time PCR; assay type: cell-based; conditions: mouse intraperitoneal macrophages, 10 ng/mL LPS, 20 μM, 24 hours
Protocol: (§1) Peritoneal macrophages of 7 to 8-week-old C57BL/6 male mice were isolated, seeded in a 24-well dish at a density of 1×10^6 cells/well, and then cultured for 4 hours in an RPMI1640 medium supplemented with 10% fetal bovine serum (FBS). A peritoneal macrophage culture broth was treated with each of 10 ng/mL of LPS and 20 μM JC1-40 or JC1-42, as indicated herein, for 24 hours. In this case, the peritoneal macrophages were kept at 37° C. in a thermo-hygrostat chamber in which 5% CO2 and 95% air were maintained.
First, mRNA expression levels of the inflammatory markers, such as TNF-α, NOS2, IL-1β, and IL-6, which induce rheumatoid arthritis, were measured using a real-time PCR (i.e., real-time reverse transcriptase-polymerase chain reaction; quantitative polymerase chain reaction) assay. As a result, it can be seen that the mRNA levels of TNF-α, NOS2, IL-1β and IL-6, which are involved in the induction of inflammation, in the intraperitoneal macrophages were reduced when the cells were treated with JC1-40 or JC1-42, as shown in FIG. 2.

[3] = tested on: CD4+ T cells from spleens; assay: IL-17 secretion of spleen T cells, sandwich ELISA of culture supernatant; assay type: cell-based; conditions: mouse spleen CD4+ T cells, Th17 conditions
Protocol: CD4+ T cells were isolated from the spleens of 7 to 8-week-old C57BL/6 male mice, seeded in a 48-well dish at a density of 5×10^5 cells/well, pre-treated with a varying concentration of JC1-40 (0.1, 0.5, 10, and 50 μM) for 24 hours, and then cultured for a day in an RPMI1640 medium supplemented with 10% fetal bovine serum (FBS). After the culturing, the cells were cultured for 3 days under Th17 differentiation conditions (including 0.5 μg/mL of an anti-CD3 antibody, 1 μg/mL of an anti-CD28 antibody, 2 ng/mL of TGF-β, 20 ng/mL of IL-6, 10 μg/mL of anti-IL-4, and 10 μg/mL of anti-IFN-γ). Thereafter, the cells were collected, washed with a FACS buffer for flow cytometry, and then blocked at 4° C. for 15 minutes to inhibit non-specific binding. As a cell surface marker, an antibody against CD4 (anti-CD4-PerCP) was added thereto, and reacted at 4° C. for 30 minutes, and the resulting reaction mixture was washed with a perm wash buffer. […] A change of the stained cells was analyzed using flow cytometry.
In addition, a culture supernatant of the JC1-40-treated Th17 cells was collected to determine an amount of IL-17 using a sandwich ELISA method. […] Then, a PNPP/DEA solution was added thereto, and developed color, and the optical density was then measured at a wavelength of 405 nm.

[4] = tested on: peritoneal macrophages; assay: M1 differentiation of intraperitoneal macrophages, PE-CD80 flow cytometry; assay type: cell-based; conditions: mouse intraperitoneal macrophages, 10 ng/mL LPS, 20 μM, 24 hours
Protocol: as §1
Further, a PE-CD80 antibody (eBioscience), which is a M1 marker for recognizing a change of M1 cells, was incubated in these cells for 30 minutes, and then subjected to flow cytometry. As a result, it was confirmed that the M1 differentiation was suppressed when the macrophages were treated with JC1-40, as shown in FIG. 3.

[5] = tested on: Raw 264.7 macrophage cell line; assay: Transcription of inflammatory genes in LPS-treated macrophage cell line, real-time PCR; assay type: cell-based, mouse; conditions: Raw 264.7, 50 ng/mL LPS, 20 μM, 24 hours
Protocol: A mouse macrophage cell line Raw 264.7 (ATCC TIB-71) was purchased from the American Type Culture Collection (ATCC). Raw 264.7 cells (2×10^5 cells/well) were seeded in a 6-well culture dish, and cultured for a day in a Dulbecco's modified Eagle's medium (DMEM) supplemented with 10% fetal bovine serum (FBS). The Raw 264.7 cells were kept at 37° C. in a thermo-hygrostat chamber in which 5% CO2 and 95% air were maintained. After the culturing, the cells were treated with 50 ng/mL of lipopolysaccharides (LPS) and 20 μM JC1-40 for 24 hours. Then, mRNA expression levels of the inflammatory markers, such as TNF-α, NOS2, IL-1β, and IL-6, which induce rheumatoid arthritis, were measured using a real-time PCR (i.e., real-time reverse transcriptase-polymerase chain reaction; quantitative polymerase chain reaction) assay.

[6] = tested on: osteoclast precursor differentiated from human PBMCs; assay: Osteoclast differentiation-related factor expression in osteoclast precursor from PBMCs, real-time PCR; assay type: cell-based; conditions: M-CSF 25 ng/mL, RANKL 30 ng/mL, 10, 20, 40 μM
Protocol: PBMCs of a healthy human were isolated, stimulated with M-CSF (25 ng/mL) for 3 days to induce differentiation into an osteoclast precursor. After 3 days, a medium was replaced with a fresh one, and the cells were stimulated with varying concentrations of M-CSF (25 ng/mL), RANKL (30 ng/mL), and JC1-40 (10, 20, 40 μM), and cultured for 3 days. After the medium was replaced every 3 days, the same stimulus was applied to the cells while a differentiation state of the cells was observed.
RNA was isolated from the differentiated cells, and synthesized into cDNA. Thereafter, a change in mRNA expression levels of the osteoclast differentiation-related factors, Cathepsin K and TRAP, was analyzed using real-time PCR.

[7] = tested on: EL4 cell line; assay: Foxp3 expression in T cell line, immunostaining and confocal microscopy; assay type: cell-based, mouse; conditions: EL4, 20 μM, Th17 differentiation conditions, confocal microscopy
[8] = tested on: CD4+ T cells from spleens; assay: Th17 differentiation of primarily cultured spleen T cells, flow cytometry; assay type: cell-based; conditions: mouse spleen CD4+ T cells, 0.1, 0.5, 10 and 50 μM, Th17 conditions 3 days
Protocol: CD4+ T cells were isolated from the spleens of 7 to 8-week-old C57BL/6 male mice, seeded in a 48-well dish at a density of 5×10^5 cells/well, pre-treated with a varying concentration of JC1-40 (0.1, 0.5, 10, and 50 μM) for 24 hours, and then cultured for a day in an RPMI1640 medium supplemented with 10% fetal bovine serum (FBS). After the culturing, the cells were cultured for 3 days under Th17 differentiation conditions (including 0.5 μg/mL of an anti-CD3 antibody, 1 μg/mL of an anti-CD28 antibody, 2 ng/mL of TGF-β, 20 ng/mL of IL-6, 10 μg/mL of anti-IL-4, and 10 μg/mL of anti-IFN-γ). Thereafter, the cells were collected, washed with a FACS buffer for flow cytometry, and then blocked at 4° C. for 15 minutes to inhibit non-specific binding. As a cell surface marker, an antibody against CD4 (anti-CD4-PerCP) was added thereto, and reacted at 4° C. for 30 minutes, and the resulting reaction mixture was washed with a perm wash buffer. After a Cytofix/Cytoperm process was performed at 4° C. for 20 minutes, the mixture was washed with a perm wash buffer. Anti-IL-17 PE was added thereto, and reacted at 4° C. for 30 minutes, and the resulting reaction mixture was washed with a perm wash buffer. A change of the stained cells was analyzed using flow cytometry.

[9] = tested on: type II collagen-induced arthritis (CIA); assay: Type II collagen-induced arthritis (CIA) animal model; assay type: in vivo, mouse; conditions: DBA male mice
Protocol: 6-week-old DBA male mice were inoculated with bovine CII (Chondrex Inc.) emulsified in CFA (Chondrex Inc.), and re-inoculated after 15 days to induce rheumatoid arthritis. After the first administration, JC1-40 dissolved in 0.5% carboxymethyl cellulose (CMC) was continuously orally administered three times a week to the mice at a dose of 10 mg/kg. A 0.5% CMC vehicle and 5 mg/kg of Enbrel as the positive control were administered to the other groups in the same manner. The ratio of the population of the mice developing an arthritic disease was calculated as incidence, and the arthritic tissues were pathophysiologically examined to calculate a degree of progression of the disease as a score and compare conditions of the rheumatoid arthritis disease between the groups. The clinical scores were evaluated using a clinical scoring system which scores the swelling and redness in feet or tail regions by observing arthritis lesions of mice with the naked eye every day to check a degree of progression of inflammatory diseases in the joints.

[10] = tested on: human peripheral blood mononuclear cells (PBMCs); assay: Th17 and Treg differentiation of CD4+ cells from PBMCs, flow cytometry; assay type: cell-based; conditions: human CD4+ cells from PBMCs, 10, 20 and 40 μM, Th17 conditions 3 days
Protocol: CD4+ cells were isolated from peripheral blood mononuclear cells (PBMCs) of a healthy human, pre-treated with a varying concentration (10, 20, and 40 μM) of JC1-40, and then cultured for 3 days under Th17 differentiation conditions (including 0.5 μg/mL of anti-CD3, 0.5 μg/mL of anti-CD28, 10 μg/mL of anti-IFN-γ, 10 μg/mL of anti-IL-4, 20 ng/mL of IL-6, and 20 ng/mL of IL-1β). The expression of Th17 (anti IL-17 PE) and Treg (Anti Foxp3-FITC) in these cells was confirmed using flow cytometry. Also, an amount of IL-17 in these supernatants was measured using ELISA.

[11] = tested on: EL4 cell line; assay: RORα and IL-17 transcription in T cell line under Th17 differentiation conditions, real-time PCR; assay type: cell-based, mouse; conditions: EL4, 20 μM pre-treatment 24 hours, Th17 differentiation conditions 48 hours
Protocol: A mouse T cell EL4 cell line (5×10^5 cells/well) was seeded in a 24-well culture dish, pre-treated with 20 μM JC1-40 for 24 hours, and cultured for a day in a RPMI 1640 medium supplemented with 10% FBS. The EL4 cell line was kept at 37° C. in a thermo-hygrostat chamber in which 5% CO2 and 95% air were maintained. After the culturing, the cells were cultured for 48 hours under Th17 differentiation conditions (including 0.5 μg/mL of an anti-CD3 antibody, 1 μg/mL of an anti-CD28 antibody, 2 ng/mL of TGF-β, 20 ng/mL of IL-6, 10 μg/mL of anti-IL-4, and 10 μg/mL of anti-IFN-γ). Expression levels of RORα, which is a JC1-40-activated nuclear receptor, and IL-17, which is an inflammatory marker inducing rheumatoid arthritis, were measured using a real-time PCR (i.e., real-time reverse transcriptase-polymerase chain reaction; quantitative polymerase chain reaction) assay.

[12] = 10 mg/kg orally three times a week

SMILES	transcription level of Arg1 [1]	transcription level of CD206 [1]	transcription level of IL-10 [1]	transcription level of Retnla [1]	mRNA level of IL-1β [2]	mRNA level of IL-6 [2]	mRNA level of NOS2 [2]	mRNA level of TNF-α [2]	other results
CNC(=S)NCc1ccc(Oc2ccccc2)cc1 [JC1-42, 1-(4-phenoxy-benzyl)-3-methyl-thiourea]	increased	increased	increased	increased	reduced	reduced	reduced	reduced	–
CNC(=S)NCc1ccc(OCc2ccccc2)cc1 [JC1-40, 1-(4-benzyloxy-benzyl)-3-methyl-thiourea]	increased	increased	increased	increased	reduced	reduced	reduced	reduced	amount of secreted IL-17 protein in the culture broth [3]: reduced; M1 differentiation (CD80 marker) [4]: suppressed; transcription level of IL-1β [5]: reduced; transcription level of IL-6 [5]: reduced; transcription level of NOS2 [5]: reduced; transcription level of TNF-α [5]: reduced; expression of osteoclast differentiation-related factors (Cathepsin K and TRAP mRNA) [6]: significantly reduced; expression level of Foxp3 [7]: increased; amount of IL-17 positive cells differentiated into Th17 [8]: decreased; arthritis incidence [9, 12]: suppressed; arthritis scores [9, 12]: suppressed; effect compared to Enbrel (positive control) ([9]; 10 mg/kg orally vs 5 mg/kg Enbrel): superior effect; amount of (FOXP3 positive) cells differentiated into Treg [10]: increased; amount of (IL-17 positive) T cells differentiated into Th17 [10]: decreased; transcription level of IL-17 [11]: decreased; transcription level of the nuclear receptor RORα [11]: increased

Reference: patent US20180235912A1, “PHARMACEUTICAL COMPOSITION FOR PREVENTING OR TREATING AUTOIMMUNE DISEASES COMPRISING THIOUREA DERIVATIVE” (SEOUL NATIONAL UNIVERSITY R & DB FOUNDATION, priority 2015, published 2018)
